Assay results as given in patent US11116778B2, “Prodrugs of ALOX-15 inhibitors and methods of using the same” (EMPIRICO INC., priority 2019, dated 2021).

Assay: Levels of compound 3 and compound 5 in rabbit nasal lavage and serum after nasal administration of compound 5
Type: in vivo
Conditions: rabbits
Method: Six (6) female NZW rabbits were employed in this study. Rabbits were obtained from Covance (Denver Pa.). Rabbits were between approximately 10 and 12 months of age at the time of study start. At time point 0, all animals received 50 μL of solution containing rabbit IL4 (RND Systems/Biotechne) and human IL13 (PreproTech) at a concentration of 0.25 mg/mL each in 0.5×PBS containing 12.5 mg/mL BSA per nostril. This was administered intranasally via a venous catheter attached to a micropipette. The animal was positioned in a supine manner and the venous catheter inserted into the nostril. The volume was introduced into the nasal cavity and the same procedure was repeated with the other nostril.
At the 2, 4, and 6 hour time points, animals in Group 1 (n=3) received 0.2 mL of vehicle (0.9% saline) per nostril and the animals in Group 2 (n=3) received 0.2 mL of compound 5 (10 mM) in vehicle per nostril. The dosing of vehicle and compound 5 proceed as follows: The animal was positioned in a supine manner in a restraint bag and a mucosal atomization device (MAD) attached to the pre-filled tuberculin syringe was inserted into the nostril and introduced into the nasal cavity. The same procedure was repeated with the other nostril.
At the 8 hour time point, all the nostrils of all animals were lavaged with 1 mL of 0.9% saline per nostril and the resulting fluid collected. Intranasal lavages were performed as follows: The animals were held sternally in a restraint bag with the head over the edge of the table and the rear of the animal elevated higher than the head. A flexible venous catheter was inserted in the nostril until resistance was felt. The 1 mL of saline was introduced through the catheter into the nasal cavity. The nasal lavage returned from the nostril was collected via a funnel into a conical tube and the approximate volume recorded. This procedure was repeated for the other nostril. The lavage was stored at approximately −70° C. until analysis. Following (<10 minutes) the 8 hour time point lavage, blood was collected from all animals, processed to serum, and frozen at approximately −70° C. until analysis.
Nasal lavage and serum samples were analyzed for the levels of compound 3 and compound 5. Frozen tissue samples were weighed (20-120 mg) and placed into 2 mL CK14 homogenizing tubes (Bertin) and 500 μL of methanol containing 1 mM butylated hydroxy toluene (BHT) and 1 mM tris(2-carboxyethyl)phosphine (TCEP) was added. The tubes were placed in a Precellys 24 tissue homogenizer (Bertin) and run at 6000 rpm six times for 20 seconds with a 10 second pause between cycles. The tubes containing the homogenized tissue were then placed in a microfuge and centrifuged for 5′ at 14,000 rpm to pellet any insoluble material. Compound 3 was quantified using LC-MS/MS (QTrap5500, Applied Biosystems). Q1/Q3 Masses: 306.00/135.00 using a deschloro derivative of compound 3 (lacking chlorine at 4 position of pyrazole ring) as an internal standard. The Q1/Q3 Masses are 272.00/101.00 Da for the internal standard. Compound 3 was extracted using liquid/liquid extraction with methanol as a diluent. […] Compound 5 was quantified using LC-MS/MS (QTrap5500, Applied Biosystems). […] Compound 5 was detected in the lavage samples from Group 2 animals (rabbit 1, rabbit 2, rabbit 3) and ranged in average concentration from 0.016 uM-0.35 uM. […]

concentration at 8 h (female, NZW, rabbit, nasal lavage, other: intranasal (mucosal atomization device), 0.2 mL of 10 mM compound 5 per nostril at 2, 4, 6 hours, lavage at 8 hours, range over 3 rabbits, read-out: average concentration of compound 5 in nasal lavage (FIG. 8)): 16 to 350 nM | level in serum samples (intranasal compound 5 10 mM, blood after the 8 hour lavage): no quantifiable
SMILES: O=C(Nc1ccc(F)cc1Cl)c1nn(COP(=O)(O)O)c(Cl)c1Cl [compound 5, (4,5-dichloro-3-((2-chloro-4-fluorophenyl)carbamoyl)-1H-pyrazol-1-yl)methyl dihydrogen phosphate]
conversion of compound 5 to compound 3 in nasal lavage (FIG. 8) (intranasal compound 5 10 mM, lavage at 8 hours): majority of compound 5 was converted to compound 3
